# Where “and” joins values, the source holds several entries; their conditions need not be identical. Equal entries are not always repeated. Where two headings read alike, the source gives them in different places.
# How the values were obtained:
# Type in all cases: cell-based
# [1] = test system: Hepatitis B virus; experiment: Effect of alkyl lipids on HBV replication in HBV persistently infected human HEP G2 cells (Table 6); conditions: for Intracellular HBV DNA, Mono (episomal 3.2-3.8 Kb HBV genomes) / Intracellular HBV DNA, RI (replication intermediates): nine days
# Protocol: Cells were treated with a particular compound for nine days at 37° C. Analysis of intracellular HEIV DNA was done 24 hours following the ninth day of treatment. […] The levels of integrated HBV DNA in each cellular DNA preparation were used to calculate the levels of episomal 3.2-3.8 Kb HBV genomes (Mono) and HBV DNA replication intermediates (RI). A zero value indicates an undetectable level of HBV virion DNA. The sensitivity cut-off was 0.1 pg DNA/ml of culture medium.
# [2] = test system: Hepatitis B virus; experiment: Effect on synthesis of antigen markers in persistently infected human HEP G2 cell cultures (Table 7); conditions: nine days; for activity at 10 µM: Hepatitis B virus, HepG2, 216 h
# Protocol: Cells were treated with compound for nine days at 37° C. The overlay medium was harvested to measure levels of HBsAg, HBeAg and virion DNA. HBsAg and HBeAg were assayed by EIA (Abbott Laboratories). Virion DNA levels were measured as described in section B above.
# [3] = Cytotoxicity in HBV persistently infected human HEP G2 cells, neutral red dye uptake (Table 5); conditions: human, hep-g2 cells, Trial 2, read-out: % of Control Neutral Red Dye Uptake
# Source text: Initially, evaluations of the alkyl lipids were done to determine whether the compounds were cytotoxic to the cells at concentrations having anti-HBV activity. The assay methodology is szt forth in Korba and Germ, Antiviral Res., 19, 55-70 (1992), incorporated by reference herein. Briefly, these cell cytotoxicity evaluations were done in 96-well plates seeded with HEP-G2 cell monolayers. The hepatoblastoma cell line HEP-G2 transfected with a plasmid carrying the gene that confers resistance to […] and four 5'-3' tandem copies of the Hepatitis B virus genome was obtained from Dr. George Acs. Proc. Natl. Acad. Sci. USA, 84, 1005-1009 (1987). Serial concentrations of compound were added to the RPMI-1640 growth medium and the growth medium was added to the 96-well plates containing the cell monolayers. The cells were incubated for a total of nine days at 37° C. The compound-containing medium was periodically replaced. Each compound was tested at four serial concentrations in triplicate. After nine days of treatment and incubation, 0.01% neutral red dye (Sigma, Inc.) was added to the overlay medium. Cell cytotoxicity was quantitated by measuring the average A510. Values in Table 1 represent the percentage of average A510 values (±standard deviation) relative to nine non-treated control wells.
# An analysis was periormed to determine the cytotoxicity of the following compounds in human HEP-G2 cells persistently infected with HBV: CP-51, CP-49, CP-9, CP-126, lyso PAF and CP-7. 2'-3'-Dideoxycytidine (ddC) was used as a control in this cytotoxicity analysis. The toxicity analyses were performed in 96-well flat bottomed tissue culture plates following the same procedure set forth in Example 6 above. Each compound was tested at four concentrations, each in triplicate cultures. Uptake of neutral red dye was used to determine the relative level of toxicity. The absorbance of internalized dye at […] (A510) was used for the quantitative analysis.
# Values are presented as a percentage of the average A510 values (± standard deviations) in ninz separate cultures of untreated cells maintained on the same 96-well plate as the test compounds. The percentage of dye uptake in the nine control cultures was 100±1.
smiles,measurement,setting,value
"CCCCCCCCCCCCCCCCCCOCC(O)COP(=O)([O-])OCC[N+](C)(C)C (racemic) [lyso PAF, rac-3-octadecyloxy-2-hydroxy-1-propyl phosphocholine]",HBV Virion DNA,"[1]; 0.1 μM, Day 0",62 pg/ml Culture Medium and 60 pg/ml Culture Medium and 81 pg/ml Culture Medium and 57 pg/ml Culture Medium
same,HBV Virion DNA,"[1]; 0.1 μM, Day 3",77 pg/ml Culture Medium and 81 pg/ml Culture Medium and 70 pg/ml Culture Medium and 69 pg/ml Culture Medium
same,HBV Virion DNA,"[1]; 0.1 μM, Day 6",80 pg/ml Culture Medium and 79 pg/ml Culture Medium and 64 pg/ml Culture Medium and 88 pg/ml Culture Medium
same,HBV Virion DNA,"[1]; 0.1 μM, Day 9",84 pg/ml Culture Medium and 96 pg/ml Culture Medium and 67 pg/ml Culture Medium and 92 pg/ml Culture Medium
same,"Intracellular HBV DNA, Mono (episomal 3.2-3.8 Kb HBV genomes)",[1]; 0.1 μM,2.5 pg/μg Cell DNA and 2.1 pg/μg Cell DNA and 2.0 pg/μg Cell DNA
same,"Intracellular HBV DNA, RI (replication intermediates)",[1]; 0.1 μM,84 pg/μg Cell DNA and 96 pg/μg Cell DNA and 67 pg/μg Cell DNA and 71 pg/μg Cell DNA
same,HBV Virion DNA,"[1]; 1 μM, Day 0",52 pg/ml Culture Medium and 51 pg/ml Culture Medium and 63 pg/ml Culture Medium and 65 pg/ml Culture Medium
same,HBV Virion DNA,"[1]; 1 μM, Day 3",69 pg/ml Culture Medium and 61 pg/ml Culture Medium and 53 pg/ml Culture Medium
same,HBV Virion DNA,"[1]; 1 μM, Day 6",72 pg/ml Culture Medium and 79 pg/ml Culture Medium and 81 pg/ml Culture Medium
same,HBV Virion DNA,"[1]; 1 μM, Day 9",74 pg/ml Culture Medium and 83 pg/ml Culture Medium and 59 pg/ml Culture Medium and 88 pg/ml Culture Medium
same,"Intracellular HBV DNA, Mono (episomal 3.2-3.8 Kb HBV genomes)",[1]; 1 μM,2.6 pg/μg Cell DNA and 2.9 pg/μg Cell DNA and 2.4 pg/μg Cell DNA
same,"Intracellular HBV DNA, RI (replication intermediates)",[1]; 1 μM,74 pg/μg Cell DNA and 83 pg/μg Cell DNA and 59 pg/μg Cell DNA and 84 pg/μg Cell DNA
same,HBV Virion DNA,"[1]; 10 μM, Day 0",52 pg/ml Culture Medium and 62 pg/ml Culture Medium and 60 pg/ml Culture Medium and 68 pg/ml Culture Medium
same,HBV Virion DNA,"[1]; 10 μM, Day 3",65 pg/ml Culture Medium and 71 pg/ml Culture Medium and 51 pg/ml Culture Medium and 50 pg/ml Culture Medium
same,HBV Virion DNA,"[1]; 10 μM, Day 6",36 pg/ml Culture Medium and 34 pg/ml Culture Medium and 30 pg/ml Culture Medium and 32 pg/ml Culture Medium
same,HBV Virion DNA,"[1]; 10 μM, Day 9, 0 = undetectable, cut-off 0.1 pg DNA/ml",14 pg/ml Culture Medium and 18 pg/ml Culture Medium and 11 pg/ml Culture Medium and 13 pg/ml Culture Medium
same,"Intracellular HBV DNA, Mono (episomal 3.2-3.8 Kb HBV genomes)",[1]; 10 μM,2.0 pg/μg Cell DNA and 2.4 pg/μg Cell DNA and 2.6 pg/μg Cell DNA and 2.8 pg/μg Cell DNA
same,"Intracellular HBV DNA, RI (replication intermediates)",[1]; 10 μM,15 pg/μg Cell DNA and 22 pg/μg Cell DNA and 18 pg/μg Cell DNA and 21 pg/μg Cell DNA
same,Relative Level of HBeAg,"[2]; 10 μM, 12960 min",50 % of Untreated Control
same,Relative Level of HBsAg,"[2]; 10 μM, 12960 min",80 % of Untreated Control
same,Relative Level of Virion DNA,"[2]; 10 μM, 12960 min",15 % of Untreated Control
same,activity at 10 µM,"[2]; read-out: Relative Level of HBeAg, 10 μM",45%
same,activity at 10 µM,"[2]; read-out: Relative Level of HBsAg, 10 μM",78%
same,activity at 10 µM,"[2]; read-out: Relative Level of Virion DNA, 10 μM",13%
same,"viability at 216 h, 3 µM",[3]; 3 μM,98 ± 2%
same,"viability at 216 h, 10 µM",[3]; 10 μM,99 ± 1%
same,"viability at 216 h, 30 µM",[3]; 30 μM,98 ± 2%
same,"viability at 216 h, 100 µM",[3]; 100 μM,40 ± 6%
